The text below walks through data of PubChem BioAssay AID1259407 (Chemical Carcinogenesis Research Information System (CCRIS), 2018).

The test system of this series is CCRIS mutagenicity, Ames/micronucleus/aberration tests. In words: CCRIS mutagenicity studies.
The mark [1] stands for this setting: Test System: AMES SALMONELLA TYPHIMURIUM, Strain/Indicator: TA98, Metabolic Activation: NONE, Method: STANDARD PLATE.
Where [2] appears, read: Test System: AMES SALMONELLA TYPHIMURIUM, Strain/Indicator: TA98, Metabolic Activation: RAT, LIVER, S-9, AROCLOR 1254, Method: STANDARD PLATE.
Where [3] appears, read: Test System: AMES SALMONELLA TYPHIMURIUM, Strain/Indicator: TA100, Metabolic Activation: NONE, Method: STANDARD PLATE.

Calls of active or inactive are those of the source. How the calls were made is not given here.

Regarding `Cn1c([N+](=O)[O-])cnc1-c1nnc(N)s1`, the mutagenic call (End Point: IN VITRO CHROMOSOMAL ABERRATIONS, Test System: HUMAN PERIPHERAL LYMPHOCYTES, Species: HUMAN, Strain/Sex: MALE, FEMALE, Metabolic Activation: NONE) is “active; positive (structural changes)”; the mutagenic call (End Point: IN VITRO CHROMOSOMAL ABERRATIONS, Test System: HUMAN PERIPHERAL LYMPHOCYTES, Species: HUMAN, Strain/Sex: MALE, FEMALE, Metabolic Activation: RAT, LIVER, S-9, AROCLOR 1254 (5%)) is “active; positive (structural changes)”; the mutagenic call (End Point: IN VITRO CHROMOSOMAL ABERRATIONS, Test System: HUMAN PERIPHERAL LYMPHOCYTES, Species: HUMAN, Strain/Sex: MALE, FEMALE, Metabolic Activation: RAT, LIVER, S-9, AROCLOR 1254 (10%)) is “active; positive (structural changes)”; the mutagenic call (End Point: IN VITRO MICRONUCLEUS, Test System: L5178Y MOUSE LYMPHOMA (TK+/-), Metabolic Activation: NONE) was “active; positive (increase in micronucleated cells)”; the mutagenic call (End Point: IN VITRO MICRONUCLEUS, Test System: L5178Y MOUSE LYMPHOMA (TK+/-), Metabolic Activation: RAT, LIVER, S-9, AROCLOR 1254) was “active; positive (increase in micronucleated cells)”; the mutagenic call (End Point: IN VIVO MICRONUCLEUS, Test System: BONE MARROW POLYCHROMATIC ERYTHROCYTES, Species: RAT, Strain/Sex: SPRAGUE-DAWLEY/MALE, FEMALE) was “active; positive”. The mutagenic call by setting is: (End Point: IN VIVO MICRONUCLEUS, Test System: BONE MARROW POLYCHROMATIC ERYTHROCYTES, Species: RAT, Strain/Sex: SPRAGUE-DAWLEY/MALE, FEMALE, Route: ORAL) “active; positive”; (Test System: AMES SALMONELLA TYPHIMURIUM, Strain/Indicator: TA98 (DNP-6), Metabolic Activation: NONE, Method: DESICCATOR) “active; positive”; (Test System: AMES SALMONELLA TYPHIMURIUM, Strain/Indicator: TA98 (DNP-6), Metabolic Activation: NONE, Method: STANDARD PLATE) “active; positive”; (Test System: AMES SALMONELLA TYPHIMURIUM, Strain/Indicator: TA98 (DNP-6), Metabolic Activation: RAT LIVER S-9, AROCLOR 1254, 10% (W/V), Method: DESICCATOR) “active; positive”; (Test System: AMES SALMONELLA TYPHIMURIUM, Strain/Indicator: TA98 (DNP-6), Metabolic Activation: RAT LIVER S-9, AROCLOR 1254, 10% (W/V), Method: STANDARD PLATE) “active; positive”; (Test System: AMES SALMONELLA TYPHIMURIUM, Strain/Indicator: TA98 (NR), Metabolic Activation: NONE, Method: DESICCATOR) “inactive; negative”. In addition, the mutagenic call is, setting by setting: (Test System: AMES SALMONELLA TYPHIMURIUM, Strain/Indicator: TA98 (NR), Metabolic Activation: NONE, Method: STANDARD PLATE) “inactive; negative”; (Test System: AMES SALMONELLA TYPHIMURIUM, Strain/Indicator: TA98 (NR), Metabolic Activation: RAT LIVER S-9, AROCLOR 1254, 10% (W/V), Method: DESICCATOR) “inactive; negative”; (Test System: AMES SALMONELLA TYPHIMURIUM, Strain/Indicator: TA98 (NR), Metabolic Activation: RAT LIVER S-9, AROCLOR 1254, 10% (W/V), Method: STANDARD PLATE) “inactive; negative”; (Test System: AMES SALMONELLA TYPHIMURIUM, Strain/Indicator: TA98, Metabolic Activation: NONE, Method: DESICCATOR) “active; positive”; under setting [1], “active; positive”; (Test System: AMES SALMONELLA TYPHIMURIUM, Strain/Indicator: TA98, Metabolic Activation: RAT LIVER S-9, AROCLOR 1254, 10% (W/V), Method: DESICCATOR) “active; positive”. In addition, the mutagenic call by setting is: (Test System: AMES SALMONELLA TYPHIMURIUM, Strain/Indicator: TA98, Metabolic Activation: RAT LIVER S-9, AROCLOR 1254, 10% (W/V), Method: STANDARD PLATE) “active; positive”; under setting [2], “active; positive”; (Test System: AMES SALMONELLA TYPHIMURIUM, Strain/Indicator: TA102, Metabolic Activation: NONE, Method: STANDARD PLATE) “active; positive”; (Test System: AMES SALMONELLA TYPHIMURIUM, Strain/Indicator: TA102, Metabolic Activation: RAT, LIVER, S-9, AROCLOR 1254, Method: STANDARD PLATE) “active; positive”.
In the case of `CO[C@]1(CC[C@@H](C)CO[C@@H]2O[C@H](CO)[C@@H](O)[C@H](O)[C@H]2O)O[C@H]2C[C@H]3[C@@H]4CC=C5C[C@@H](O[C@@H]6O[C@H](CO)[C@@H](O)[C@H](O[C@@H]7O[C@H](CO)[C@@H](O)[C@H](O)[C@H]7O)C6O[C@@H]6O[C@@H](C)[C@H](O)[C@@H](O)[C@H]6O)CC[C@]5(C)[C@H]4CC[C@]3(C)[C@H]2[C@@H]1C` (some centres not stated), the mutagenic call was “inactive; negative” under setting [1]; “inactive; negative” (Test System: AMES SALMONELLA TYPHIMURIUM, Strain/Indicator: TA98, Metabolic Activation: RAT, LIVER, S-9, PHENOBARBITAL, Method: STANDARD PLATE); “inactive; negative” under setting [3]; “inactive; negative” (Test System: AMES SALMONELLA TYPHIMURIUM, Strain/Indicator: TA100, Metabolic Activation: RAT, LIVER, S-9, PHENOBARBITAL, Method: STANDARD PLATE).
Turning to `O=C(/C=C/c1ccccc1)c1ccc(O)cc1`, the mutagenic call was “inactive; negative” under setting [1]; “inactive; negative” under setting [2]; “inactive; negative” under setting [3]; “inactive; negative” (Test System: AMES SALMONELLA TYPHIMURIUM, Strain/Indicator: TA100, Metabolic Activation: RAT, LIVER, S-9, AROCLOR 1254, Method: STANDARD PLATE).
On to `O=C1Cc2cc3ccc([N+](=O)[O-])cc3cc2[C@H](O)[C@H]1O`, for which the mutagenic call under setting [1] was “inactive; negative”.
Turning to `C[C@H](CCN=[N+]=[N-])c1ccccc1`, the mutagenic call (Test System: AMES SALMONELLA TYPHIMURIUM, Strain/Indicator: TA100, Metabolic Activation: RAT, LIVER, S-9, PCB, Method: PREINCUBATION) was “active; positive”.
